Read-outs that look alike come from different tables or passages of the source. Residues, ends and D or L forms follow the SMILES beside them. *: point of attachment. Cbz = O=C(OCc1ccccc1)*

The target of data set [1] is T1, cruzain (Trypanosoma cruzi, UniProt P25779). As to the kind of experiment: Cruzain inhibition, fluorogenic substrate Cbz-Phe-Arg-AMC time courses. Type of data set: biochemical.
For data set [2], the system named is T. cruzi-infected cardiomyoblasts. The data set can be described thus: T. cruzi-infected C2C12 murine cardiomyoblast assay. The format is cell-based. As to conditions: Trypanosoma cruzi, C2C12, in Mus musculus, 48 h, read-out: T. cruzi-infected cardiomyoblasts EC50, C2C12 cells, T. cruzi Ca-I/72, 2 days, 0.02–40 μM.
For data set [3], the target named is T1, cruzain. The data set can be described thus: biochemical. As to conditions: read-out: Residence time τ=1/kobs.
Data set [4] has as its system C2C12 murine cardiomyoblast cells. As to the kind of experiment: Toxicity against host cardiomyoblasts in the T. cruzi infection assay. The format is cell-based. As to conditions: at up to 40 μM.
A short description of data set [5]: Detection of aldehyde content using phenylhydrazine. Type of data set: physicochemical. To be noted: 0.2 mM compound, 1 mM phenylhydrazine; for Reaction with excess phenylhydrazine (in words): 2 h; for kobs of phenylhydrazone formation: Abs 282 nm, pH 7.5 buffer lacking DTT.
Data set [6] in a line: Pharmacokinetic evaluation in mice by intravenous administration. The format is in vivo. To be noted: data not shown.
Data set [7] is described as follows: Stability of prodrugs in buffer without esterase. Type of data set: physicochemical. To be noted: buffer pH 7.5, over 3 h.
A further data set deals with human cathepsin L (Homo sapiens, UniProt P07711). The data set can be described thus: Human cathepsin L inhibition. Type of data set: biochemical.
Data set [8] relates to T. b. brucei BSFs. As to the kind of experiment: Axenic cultures of T. b. brucei bloodstream forms, growth inhibition. As to conditions: Trypanosoma brucei, read-out: T. b. brucei BSFs EC50.
Data set [9] relates to T. b. brucei BSFs. To be noted: read-out: EC50 in T. b. brucei BSFs; cited from earlier work.

T1 sequence (P25779 123-337 limits assumed): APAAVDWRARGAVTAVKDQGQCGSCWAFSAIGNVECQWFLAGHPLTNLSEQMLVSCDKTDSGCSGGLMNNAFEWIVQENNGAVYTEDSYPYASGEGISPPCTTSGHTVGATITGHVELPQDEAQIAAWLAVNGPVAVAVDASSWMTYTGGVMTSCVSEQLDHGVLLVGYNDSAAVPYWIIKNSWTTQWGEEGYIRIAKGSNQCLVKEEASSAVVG
Chain of human cathepsin L (P07711 114-333): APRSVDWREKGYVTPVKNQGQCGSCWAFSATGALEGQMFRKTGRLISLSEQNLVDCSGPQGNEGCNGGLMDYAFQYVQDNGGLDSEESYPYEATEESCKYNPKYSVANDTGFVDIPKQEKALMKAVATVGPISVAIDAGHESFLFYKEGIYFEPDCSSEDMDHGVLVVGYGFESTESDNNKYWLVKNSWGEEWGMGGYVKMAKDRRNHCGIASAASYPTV

As for `CN1CCN(C(=O)N[C@@H](Cc2ccccc2)C(=O)N[C@@H]2Cc3ccccc3C[C@H]2O)CC1` (mixture of isomers) [Compound 3, N-((S)-1-(((2S,3S)-3-hydroxy-1,2,3,4-tetrahydronaphthalen-2-yl)amino)-1-oxo-3-phenylpropan-2-yl)-4-methylpiperazine-1-carboxamide and N-((S)-1-(((2R,3R)-3-hydroxy-1,2,3,4-tetrahydronaphthalen-2-yl)amino)-1-oxo-3-phenylpropan-2-yl)-4-methylpiperazine-1-carboxamide], the “Cruzain inhibition (in words)” value on cruzain [1] (at ≤100 μM) is reported as “did not inhibit cruzain”. As for `O=C[C@H](Cc1ccccc1)NC(=O)[C@H](Cc1ccccc1)NC(=O)OCc1ccccc1` [Compound 1, Cbz-Phe-Phe-H] (Cbz-Phe-Phe-aldehyde), the EC50 in [2] was determined as 0.4 µM. The “k4, rate constant for conversion of EI* back to EI” value at cruzain [1] (from replot of kobs vs [I], eq 3) was “(7.6±0.6)×10^–4 s^–1”. Moreover, on cruzain [3], the residence time was 52 min. Also, the “Toxicity against the host cardiomyoblasts” value in [4] is “significant cytotoxicity”. As to `O=C(N[C@@H](Cc1ccccc1)C(=O)N[C@H]1Cc2ccccc2OC1O)OCc1ccccc1` (stereo partly drawn) [Compound 2, Cbz-Phe-o-Tyr-H], at cruzain [1] (Ki*(12)/Ki*(11), Ki*(2)/Ki*(1)), the “Ratio Ki*(SMAI)/Ki*(free aldehyde counterpart)” value came to 110. In addition, the residence time at cruzain [3] fell in the range of 2.5 to 5.5 min. On to `COc1ccccc1C[C@@H](C=O)NC(=O)[C@H](Cc1ccccc1)NCC(=O)OCc1ccccc1` [Compound 5], for which the “Fold less active than aldehyde 1 versus cruzain” value at cruzain [1] is given as 50 fold. For `COc1ccc2c(c1)C[C@H](NC(=O)[C@H](Cc1ccccc1)NC(=O)OCc1ccccc1)C(O)O2` (some centres unmarked) [Compound 6], on cruzain [1], the “Fold lower activity than 7” value is “over 3 fold” and the “Fold more weakly binding than un-substituted SMAI 2” value is listed as 7 fold. In addition, on cruzain [3], the residence time fell in the range of 2.5 to 5.5 min. On to `Cc1ccc2c(c1)C[C@H](NC(=O)[C@H](Cc1ccccc1)NC(=O)OCc1ccccc1)C(O)O2` (stereo partly drawn) [Compound 7, Benzyl ((2S)-1-(((3S)-2-hydroxy-6-methylchroman-3-yl)amino)-1-oxo-3-phenylpropan-2-yl)carbamate], for which, at cruzain [3], the residence time was in the range of 2.5 to 5.5 min. Same read-out and setting: in the case of `O=C(N[C@@H](Cc1ccccc1)C(=O)N[C@H]1Cc2cc(Cl)ccc2OC1O)OCc1ccccc1` (some centres unmarked) [Compound 8] it was 2.5 to 5.5 min; in that of `O=C(N[C@@H](Cc1ccccc1)C(=O)N[C@H]1Cc2cc(F)ccc2OC1O)OCc1ccccc1` (some centres unmarked) [Compound 9], 2.5 to 5.5 min. Turning to `COC(=O)c1ccc2c(c1)C[C@H](NC(=O)[C@H](Cc1ccccc1)NC(=O)OCc1ccccc1)C(O)O2` (some centres unmarked) [Compound 10], on cruzain [1], the “Fold increase in potency versus 2” value was 3 fold. In addition, the residence time at cruzain [3] is 2.5 to 5.5 min.

`CN1CCN(C(=O)N[C@@H](Cc2ccccc2)C(=O)N[C@H](C=O)CCc2ccccc2)CC1` [Compound 11, 4-Methyl-N-((S)-1-oxo-1-(((S)-1-oxo-4-phenylbutan-2-yl)amino)-3-phenylpropan-2-yl)piperazine-1-carboxamide]: in [5], the “Reaction with excess phenylhydrazine (in words)” value is recorded as “completely converted to phenylhydrazone” and the “kobs of phenylhydrazone formation” value is “(2.61±0.05)×10^–4 s^–1”. For the molecule `CN1CCN(C(=O)N[C@@H](Cc2ccccc2)C(=O)N[C@H]2Cc3ccccc3OC2O)CC1` (some centres unmarked) [Compound 12], in data set [6], the “Half-life in mice (in words)” value is “short half-life”. For the same molecule, on cruzain [3], the residence time was found to be 26 min. Moreover, in data set [5], the “Reaction with excess phenylhydrazine (in words)” value is recorded as “remained intact after 2 h” and the “kobs of phenylhydrazone formation” value was “negligible”. With `CC(=O)OC1Oc2ccccc2C[C@@H]1NC(=O)[C@H](Cc1ccccc1)NC(=O)N1CCN(C)CC1` (stereo partly drawn) [Compound 13, (3S)-3-((S)-2-(4-methylpiperazine-1-carboxamido)-3-phenylpropanamido)chroman-2-yl acetate], the “Degradation in buffer without esterase” value in data set [7] is recorded as “about 10%”.

For the molecule `CCOC1Oc2ccccc2C[C@@H]1NC(=O)[C@H](Cc1ccccc1)NC(=O)N1CCN(C)CC1` (stereo partly drawn) [Compound 16, N-((2S)-1-(((3S)-2-ethoxychroman-3-yl)amino)-1-oxo-3-phenylpropan-2-yl)-4-methylpiperazine-1-carboxamide], on cruzain [1], the “Cruzain inhibition by prodrugs (in words)” value is listed as “did not inhibit cruzain”. Same read-out and setting: in the case of `CC(C)OC1Oc2ccccc2C[C@@H]1NC(=O)[C@H](Cc1ccccc1)NC(=O)N1CCN(C)CC1` (some centres unmarked) [Compound 17] it was “did not inhibit cruzain”.

Take `CC(C)[C@H](NC(=O)OCc1ccccc1)C(=O)N[C@@H](CC1CCCCC1)C(=O)N[C@H](C=O)Cc1ccc[nH]c1=O` [Compound 18]: the “Inhibition of human cathepsin L (in words)” value on human cathepsin L is recorded as “inhibited human cathepsin L”. `CN1CCN(C(=O)N[C@@H](Cc2ccccc2)C(=O)N[C@H](/C=C/S(=O)(=O)c2ccccc2)CCc2ccccc2)CC1` [K777, reference compound]: in the data set on T. b. brucei BSFs [8], the EC50 turned out to be 0.09 ± 0.06 µM. Further, the “Toxicity against the host cardiomyoblasts” value in [4] is “significant cytotoxicity”. As for `N=C(N)c1ccc(/N=N/Nc2ccc(C(=N)N)cc2)cc1` [diminazene], the EC50 with T. b. brucei BSFs [9] was 0.99 µM.

Source of the values: paper PMC10504874 (Journal of medicinal chemistry, 2021).
